Measurements as given in patent US9114177B2, “Block copolymer having phenylboronic acid group introduced therein, and use thereof” (THE UNIVERSITY OF TOKYO, priority 2011, dated 2015).

Key:
[1] = cited from earlier work
[2] = siRNA diffusion time of block copolymer/siRNA complexes in serum solution (complex stability); type: physicochemical; conditions: siRNA not mixed with block copolymer, 50 nM, serum solution (10% FBS)
Experimental: A variety of block copolymers having different amino acid polymerization degrees and FPBA group contents were prepared as mentioned in Sections (1-i) to (1-iii) and (2-i) to (2-iii). It should be noted that PEG having a molecular weight (Mw) of 12,000 was used as methoxy-PEG-NH2. The block copolymers were mixed with siRNA fluorescently labeled with Cy3 so as to achieve an N/P ratio of 8. The resultant mixtures were left to stand still in a refrigerator for 1 to 2 hours and diluted with a serum solution (150 mM NaCl, 10 mM Hepes, 10% FBS) so as to achieve an siRNA concentration of 50 nM. The resultant diluted solutions were left to stand still at room temperature for about 1 hour, and the siRNA diffusion time was measured with a confocal laser scanning microscope (manufactured by Carl Zeiss, product name “LSM510”) (10 sec×10 times). It should be noted that, when the measurement was carried out in the same manner as above except that siRNA was not mixed with the block copolymer, the diffusion time (diffusion time of siRNA alone) was 157.5 μsec. It should be noted that GL3-siRNA was used as the siRNA.

[3] = Blood retention properties of complex; type: in vivo; conditions: mice, tail vein, 20 μg siRNA
Experimental: The block copolymer (PEG-PLL 12-23/43) and Cy5-GL3-siRNA were added to a 10 mM HEPES buffer (pH 7.3) so as to achieve an N/P ratio of 8 and an siRNA concentration of 7.5 μM, and the resultant was mixed and left to stand still for about 1 to 2 hours at room temperature to prepare a complex solution. The complex solution or a solution of the siRNA (10 mM HEPES buffer) was administered to the tail veins of mice (female Balb/C nude, 6-week-old, N=4) so that the dose was 20 μg of the siRNA, and the amount of the siRNA remaining in blood was determined over time.

Compound	pKa [1]	diffusion time of siRNA alone [2]	siRNA remaining in blood at 10 minutes after administration [3]	siRNA remaining in blood at 1 hour after administration [3]
OB(O)c1ccccc1 [phenylboronic acid]	8 to 9	–	–	–
GL3-siRNA: siRNA for firefly luciferase, SEQ ID NO: 5 and 6, fluorescently labelled (Cy3 or Cy5), tested alone (chain 1 CUUACGCUGACUACUUCGAUU; chain 2 UCGAAGUACUCAGCGUAAGUU; sense strand 5' end labeled with Cy3 (or Cy5), further chemistry not given here)	–	157.5 μsec	about 10%	almost no siRNA remained
